Seven molecules from ChEMBL document CHEMBL1138874, “Design and synthesis of a series of novel pyrazolopyridines as HIF-1alpha prolyl hydroxylase inhibitors” (Bioorg Med Chem Lett, 2006) can be followed below.

For orientation: pEC50 means the negative decadic logarithm of the EC50, by convention in mol/L. Read a high pEC50 as a low EC50.

pEC50: −log10 of the molar value.

This assay relates to HEK293. The experiment in a line: cells. As to conditions: Homo sapiens.
Consider `O=C(O)c1cnn(-c2ccc(COCc3ccccc3)cn2)c1`, for which the pEC50 was 4.60.

Molecule `O=C(O)c1cnn(-c2ccc(COCc3cccc(Cl)c3)cn2)c1` showed a pEC50 of 5.42. The value for `COc1cccc(COCc2ccc(-n3cc(C(=O)O)cn3)nc2)c1` was < 4.00. In the case of `COc1ccc(COCc2ccc(-n3cc(C(=O)O)cn3)nc2)cc1` it was 6.00.

In the case of `N#Cc1ccccc1-c1ccc(COCc2ccc(-n3cc(C(=O)O)cn3)nc2)cc1`, the pEC50 is < 4.00. In the case of `O=C(O)c1cnn(-c2ccc(COCc3cccc(C(F)(F)F)c3)cn2)c1` it was 4.96. In the case of `O=C(O)c1cnn(-c2ccc(COCc3ccc(Cl)cc3)cn2)c1` it was 5.13.
